The target in one series is T1, AT1 receptors (Homo sapiens, UniProt P30556).
T1 construct: host or cells: HEK293
T1 sequence (P30556 1-359): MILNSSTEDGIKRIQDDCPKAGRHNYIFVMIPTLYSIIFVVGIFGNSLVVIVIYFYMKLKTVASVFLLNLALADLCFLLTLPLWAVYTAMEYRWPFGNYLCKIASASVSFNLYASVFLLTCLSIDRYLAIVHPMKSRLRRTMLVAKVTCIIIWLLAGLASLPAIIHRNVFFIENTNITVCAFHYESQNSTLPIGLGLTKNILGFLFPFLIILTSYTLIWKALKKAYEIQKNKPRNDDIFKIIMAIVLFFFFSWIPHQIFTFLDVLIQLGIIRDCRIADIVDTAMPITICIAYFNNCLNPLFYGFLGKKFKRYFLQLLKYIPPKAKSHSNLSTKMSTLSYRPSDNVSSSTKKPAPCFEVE
Nature of the series: Effect on calcium current in cells stably expressing AT1 receptors (FLIPR, antagonist mode). Type of series: cell-based. The note with it: HEK293-AT1 cells, Fluo-8 AM, FLIPR Tetra; read-out: IC50 values of compounds on calcium current in cells stably expressing AT1 receptors. From the text: Test Example 1. Determination of the Effect of the Compounds of the Present Invention on Calcium Current in Cells Stably Expressing AT1 Receptors
Antagonistic effect of test compounds on HEK293-AT1 cell activity
• DMEM, high glucose (Gibco: 12100); • Fetal bovine serum (Biosera: FB-1058/500); • P/S (Biosera: XC-A4122); • 5× Matrigel (Corning: 354230); • HBSS (Sigma: H1387); • HEPES (Invitrogen: 15630080); • Fluo-8 AM (AAT Bioquest: 21080); • Probenecid (Sigma: P8761); • Pluronic F-127 (Sigma: P2443-250G); • Angiotensin III TFA (MCE: HY-113035A); • Irbesartan (MCE: HY—B0202); • 1000× Fluo-8 AM (2 mM): Fluo-8 AM was dissolved in DMSO, the mixture was shaken for 1-2 min, sub-packaged and stored at −20° C.; • Complete culture medium: DMEM+10% FBS+1×P/S; • Cell seeding medium: DMEM+10% FBS+1×PS; • Experimental buffer 1: 1×HBSS+20 mM HEPES+1 mM Probenecid+0.025% Pluronic F-127; • Experimental buffer 2: 1×HBSS+20 mM HEPES+0.075% Pluronic F-127; • 1× Matrigel: 5× Matrigel was diluted with DMEM; • Cell line: HDB HEK293-AT1.
• 1) HEK293-AT1 cell line was cultured in complete culture medium at 37° C., 5% CO2 to 70%-90% confluence. • 2) the 384-well cell plate was coated with 1× Matrigel with 5 μL/well at room temperature for 10 to 30 min. • 3) the cells were digested and resuspended in cell seeding medium, inoculation was performed at 8,000 cells/well/20 μL in a 384-well cell culture plate, and the cells were cultured at 37° C., 5% CO2 for 24 h. • 4) the cell culture plate was taken out of the CO2 incubator and equilibrated at room temperature for 10 min. • 5) 1000× Fluo-8 AM was taken and diluted to 1× Fluo-8 AM with experimental buffer 1 that has been equilibrated to room temperature, with a concentration of 2 μM. • 6) the culture medium was removed from the cell culture plate, 20 μL of 1× Fluo-8 AM was added to each well, the mixture was centrifuged at 300 rpm for 60 seconds at room temperature, and incubated at room temperature in the dark for 1 h. • 7) positive control compound and test compound working solution (3×) were formulated: • (1) instrument Bravo was used to dilute the compound to 11 concentration points on the 384-well Echo compound plate (LABCYTE: LP-0200); • (2) instrument ECHO was used to transfer 90 nL of compound per well (compound storage concentration, such as the highest concentration point 10 mM) to the 384-well compound plate (PE: 6008590); • (3) Multidrop Combi was used to add 30 μL of experimental buffer 2 to the 384-well compound plate (PE: 6008590), the positive control compound and test compound were diluted to 30 μM (3×), and placed at room temperature until use. • 8) FLIPR Tetra was used to add 10 μL of diluted 3× compound into the experimental well of the corresponding 384-well cell plate, the compound and cells were incubated for 10 min at room temperature, then 10 μL of diluted 4× agonist was added, and the data was read and collected at the same time.
FLIPR Tetra was used to read and collect the fluorescence signal value (RFU). The maximum RFU value was used to calculate the percent activation data based on the readings of the Low control (DMSO control) and High control (100 nM positive compound) experimental groups {% activation rate=(RFUsample−RFUlow control)/(RFUhigh control−RFUlow control)×100}. The concentration of the test compound was 11 concentrations after diluting the reaction system 3 times, ranging from 10 uM to 0.17 nM.

The nature of series [1]: Rat pharmacokinetic evaluation test, oral administration. Type of series: in vivo. The conditions noted are these: male, SD rats, p.o. 5 mg/kg, plasma. How it is done:
SD rats were used as test animals to study the pharmacokinetic behavior of the compounds of the present invention in the rat body (plasma) after oral administration at a dose of 5 mg/kg.
3 SD rats/group, male, from Shanghai Jiesijie Experimental Animal Co., Ltd., animal production license number (SCXK (Shanghai) 2013-0006 N0.311620400001794).
• 0.5% CMC-Na (1% Tween80) was dissolved with ultrasound, and formulated into a clear solution or homogeneous suspension.
• p.o. respectively after the rats were fasted overnight; • the p.o. dose was 5 mg/kg and the administration volume was 10 mL/kg.
After oral administration of rats, 0.2 mL of blood was collected from the jugular vein at 0.25 h, 0.5 h, 1.0 h, 2.0 h, and 4.0 h, placed in an EDTA-2K test tube, centrifuged at 6000 rpm for 6 min at 4° C. to separate plasma which was stored at −80° C.; the rats can eat 4 h after administration.
• 1) 160 μL of acetonitrile was added to 40 μL of plasma sample for precipitation, mixed and centrifuged at 3500×g for 5 to 20 min. • 2) the treated supernatant solution was taken and subjected to LC/MS/MS to analyze the concentrations of the test compounds. LC/MS/MS analysis instrument: AB Sciex API 4000 Qtrap.
• Liquid phase conditions: Shimadzu LC-20AD pump • chromatographic column: AgilentZORBAX XDB-C18 (50×2.1 mm, 3.5 μm) mobile phase: liquid A was 0.1% aqueous formic acid solution, liquid B was acetonitrile • flow rate: 0.4 mL/min • Elution time: 0-4.0 min, the eluent was as follows:
The main pharmacokinetic parameters were calculated using WinNonlin 6.1.

As to `CCCCC1=NC2(CCCC2)C(=O)N1Cc1ccc(-c2ccccc2S(=O)(=O)Nc2noc(C)c2C)c(COC2CC2)c1` [Example 13, 4′-((2-butyl-4-oxo-1,3-diazaspiro[4.4]non-1-en-3-yl)methyl)-2′-(cyclopropoxymethyl)-N-(4,5-dimethylisoxazol-3-yl)-[1,1′-biphenyl]-2-sulfonamide], on AT1 receptors, the IC50 is 10 nM. Turning to `CCCCC1=NC2(CCCC2)C(=O)N1Cc1ccc(-c2ccccc2S(=O)(=O)Nc2noc(C)c2C)c(COCC2CC2)c1` [Example 14, 4′-((2-butyl-4-oxo-1,3-diazaspiro[4.4]non-1-en-3-yl)methyl)-2′-((cyclopropylmethoxy)methyl)-N-(4,5-dimethylisoxazol-3-yl)-[1,1′-biphenyl]-2-sulfonamide], in series [1], the AUC(0-inf) is 11300 ng·h/mL, the Cmax amounted to 2320 ng/mL and the time to peak (Tmax) worked out at 0.5 h. Moreover, the MRT inf in series [1] (read-out: MRT0-∞) was found to be 5.3 h. In addition, on AT1 receptors, the IC50 came to 6.9 nM.

As to `CCCCC1=NC2(CCCC2)C(=O)N1Cc1ccc(-c2ccccc2S(=O)(=O)Nc2noc(C)c2Cl)c(COC2CC2)c1` [Example 52, 4′-((2-butyl-4-oxo-1,3-diazaspiro[4.4]non-1-en-3-yl)methyl)-N-(4-chloro-5-methylisoxazol-3-yl)-2′-(cyclopropoxymethyl)-[1,1′-biphenyl]-2-sulfonamide], on AT1 receptors, the IC50 came out at 8.6 nM.

Take `CCCCC1=NC2(CCCC2)C(=O)N1Cc1ccc(-c2ccccc2S(=O)(=O)Nc2noc(C)c2Cl)c(COC)c1` [Example 53, 4′-((2-butyl-4-oxo-1,3-diazaspiro[4.4]non-1-en-3-yl)methyl)-N-(4-chloro-5-methylisoxazol-3-yl)-2′-(methoxymethyl)-[1,1′-biphenyl]-2-sulfonamide]: the IC50 on AT1 receptors is 9.1 nM.

Regarding `CCCCC1=NC2(CCCC2)C(=O)N1Cc1ccc(-c2ccccc2S(=O)(=O)Nc2noc(C)c2Cl)c(OCCC)c1` [Example 55, 4′-((2-butyl-4-oxo-1,3-diazaspiro[4.4]non-1-en-3-yl)methyl)-N-(4-chloro-5-methylisoxazol-3-yl)-2′-propoxy-[1,1′-biphenyl]-2-sulfonamide], at AT1 receptors, the IC50 is 3.7 nM.

For `CCCCC1=NC2(CCCC2)C(=O)N1Cc1ccc(-c2ccccc2S(=O)(=O)Nc2noc(C)c2Cl)c(COC(C)C)c1` [Example 72, 4′-((2-butyl-4-oxo-1,3-diazaspiro[4.4]non-1-en-3-yl)methyl)-N-(4-chloro-5-methylisoxazol-3-yl)-2′-(isopropoxymethyl)-[1,1′-biphenyl]-2-sulfonamide], the half-maximal inhibitory concentration (IC50) at AT1 receptors was determined as 6.1 nM. `CCCCC1=NC2(CCCC2)C(=O)N1Cc1ccc(-c2ccccc2S(=O)(=O)Nc2noc(C)c2Cl)c(COCC2CC2)c1` [Example 85, 4′-((2-butyl-4-oxo-1,3-diazospiro[4.4]non-1-en-3-yl)methyl)-N-(4-chloro-5-methylisoxazol-3-yl)-2′-((cyclopropylmethoxy)methyl)-[1,1′-biphenyl]-2-sulfonamide]: on AT1 receptors, the IC50 was 5.2 nM.

Source of the values: patent US20240368123A1, “AROMATIC RING-CONTAINING BIOLOGICAL ANTAGONIST, AND PREPARATION METHOD THEREFOR AND USE THEREOF” (SHANGHAI HANSOH BIOMEDICAL CO., LTD., priority 2021, published 2024).
